experiment: recombinant barcode read abundance after kanamycin selection (control-corrected) (log10(CPM+1)); higher = more efficient recombination; sequences stand for … in AGTGCAGAGAAAATCGGCCAGTTTTCTCTGCCTGCAGTCCGCATGCCGT…AGATTTATGCAGCGGACTGCCTTTCTCCCAAAGTGATAAACCGGACAGTATCATGGACCGGTTTTCCCGGTAATCCGTATTTGCAAGGTTGGTTTCACT; site = the 11-nt target
Method in brief: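 Targets and IS621 bridge RNA target-binding loops were paired in oligos, each with a promoter, a barcode and the J23119-driven first 104 bridge RNA bases. A vector carrying the remaining 73 bp and a T7-inducible recombinase received these by Gibson cloning, and the pool was co-electroporated into E. coli with a donor plasmid. Duplicate plates contained chloramphenicol/ampicillin LB agar (control) or chloramphenicol/ampicillin/kanamycin with 0.1 mM IPTG. Recombination efficiency comes from averaged, control-corrected counts per million of recombinant-junction barcodes, reported as log10(CPM+1).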
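Note: IS621 recombinase and bridge RNA in Escherichia coli cells.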

| Sequence | recombinant barcode read abundance (log10) |
| --- | --- |
| AGCCTTGCTTGGGTTCTAACCTGTTGCCT (site AGCGTTGCTAG) | 0.566 |
| GTCCAGGCTTGGGTTCTAACCTGTTGCGG (site GTCCAGGCTCC) | 0.924 |
| AGGCGCCCTTGGGTTCTAACCTGTTGCAG (site AGGCGCCCTGT) | 0.0789 |
| GTAAGCACTTGGGTTCTAACCTGTTGCTT (site GTAAGGACTAA) | 0.0207 |
| CAATCTACTTGGGTTCTAACCTGTTGCCT (site CAATCTACTAG) | 0.0558 |
| ACTTCGACTTGGGTTCTAACCTGTTGCCT (site AGTTCGACTAG) | 0.461 |
| GTCACCTCTTGGGTTCTAACCTGTTGCTA (site GTAACCTCTGA) | 0.217 |
| GACTGTCCTTGGGTTCTAACCTGTTGCGA (site GACTGTCCTTC) | 1.8 |
| GGAGATTCTTGGGTTCTAACCTGTTGCCT (site GGAGTTGCTAG) | 0.0142 |
| CACAGGCCTTGGGTTCTAACCTGTTGCAG (site CACAGGCCTCT) | 1.98 |
| GGACGTGCTTGGGTTCTAACCTGTTGCCT (site CTCTCGTCTCC) | 0.0482 |
| GGGGTTCCTTGGGTTCTAACCTGTTGCCT (site GGGGTTCCTAA) | 0.223 |
| GTTCAACCTTGGGTTCTAACCTGTTGCCT (site GGTCAACCTAG) | 0.0287 |
| TACAACACTTGGGTTCTAACCTGTTGCGT (site GTAGGTCCTCG) | 0.318 |
| GTAAGCACTTGGGTTCTAACCTGTTGCTT (site GTAAGCACTAA) | 0.18 |
| CTAACTGCTTGGGTTCTAACCTGTTGCGG (site CTAACTCCTCA) | 0.0417 |
| TGCTGTGCTTGGGTTCTAACCTGTTGCCT (site TGCTGTTCTAG) | 0.279 |
| GTGGATGCTTGGGTTCTAACCTGTTGCCT (site GTGGATGCTAG) | 1.6 |
| TCCGAGACTTGGGTTCTAACCTGTTGCCT (site TCCGAGACTGG) | 0.267 |
| GGTCGACCTTGGGTTCTAACCTGTTGCCT (site CGTCGACCTAG) | 0.0694 |
| TCCTTCACTTGGGTTCTAACCTGTTGCCT (site TCCTTCACTAG) | 0.285 |
| GTGGTAGCTTGGGTTCTAACCTGTTGCCT (site GTGGTAGCTAG) | 1.42 |

| Sequence | recombinant barcode read abundance (log10) |
| --- | --- |
| GCGAAGTCTTGGGTTCTAACCTGTTGCTT (site GCGAACACTAA) | 0.0375 |
| CTAAGGCCTTGGGTTCTAACCTGTTGCAT (site AAGTCCTCTCA) | 0.428 |
| TAGTGTCCTTGGGTTCTAACCTGTTGCGT (site TAGTCTCCTAC) | 0.104 |
| CTGATAACTTGGGTTCTAACCTGTTGCCT (site CTGATCACTAG) | 0.279 |
| ACCCAAACTTGGGTTCTAACCTGTTGCCT (site ACCCAATCTAG) | 0.0553 |
| GTGGTAGCTTGGGTTCTAACCTGTTGCCT (site GTGGTATCTAG) | 0.0998 |
| TGAGCTACTTGGGTTCTAACCTGTTGCAC (site TGTGCGACTGT) | 0.0102 |
| TCCCAAGCTTGGGTTCTAACCTGTTGCTA (site TCCGAAGCTTA) | 0.0505 |
| GTCCACCCTTGGGTTCTAACCTGTTGCAG (site GTCCACCCTCT) | 1.86 |
| CTACGAACTTGGGTTCTAACCTGTTGCGG (site CTACGAACTCC) | 2.17 |
| AATAACCCTTGGGTTCTAACCTGTTGCCT (site ACTAACCCTAG) | 0.145 |
| TGAGACTCTTGGGTTCTAACCTGTTGCCT (site TGGGACTCTAG) | 0.198 |
| TAGGTGTCTTGGGTTCTAACCTGTTGCCT (site TATGTGTCTAG) | 0.0655 |
| GGACGTGCTTGGGTTCTAACCTGTTGCCT (site GGACGTGCTAG) | 1.92 |
| GGATATACTTGGGTTCTAACCTGTTGCCT (site GGATATACTAG) | 1.47 |
| AGTACAACTTGGGTTCTAACCTGTTGCCT (site AGCACAACTAG) | 0.153 |
| ACGGTGACTTGGGTTCTAACCTGTTGCCT (site CCGGTGACTAG) | 0.298 |
| CGTAAGCCTTGGGTTCTAACCTGTTGCAT (site CGTAAGCCTAT) | 0.57 |
| CAAAACTCTTGGGTTCTAACCTGTTGCTT (site TCCCCGGCTCC) | 0.0614 |
| AAACCACCTTGGGTTCTAACCTGTTGCCT (site ATACCACCTAG) | 0.861 |
| TAGGGCCCTTGGGTTCTAACCTGTTGCCT (site CAGGGCCCTAG) | 0.0445 |
| CTAGTGACTTGGGTTCTAACCTGTTGCGT (site CTAGTGACTTC) | 0.00958 |

| Sequence | recombinant barcode read abundance (log10) |
| --- | --- |
| CCTGTATCTTGGGTTCTAACCTGTTGCCT (site ACTGTATCTAG) | 0.0208 |
| CACCCACCTTGGGTTCTAACCTGTTGCCT (site AACCCACCTAG) | 0.0311 |
| TCGTGCGCTTGGGTTCTAACCTGTTGCCT (site TCGTGCTCTAG) | 0 |
| CGTGGTCCTTGGGTTCTAACCTGTTGCCT (site CGTGGTCCTAT) | 0.657 |
| CTATTTGCTTGGGTTCTAACCTGTTGCAA (site CTATTTGCTTT) | 0.0441 |
| GGGACCACTTGGGTTCTAACCTGTTGCTA (site GGGACCACTTA) | 1.77 |
| CTGGACACTTGGGTTCTAACCTGTTGCCT (site CTCGACACTAG) | 0.0566 |
| GTCGCGACTTGGGTTCTAACCTGTTGCCT (site GTCGCGTCTAG) | 0.215 |
| GAATCCTCTTGGGTTCTAACCTGTTGCCT (site GAATCCTCTAG) | 2.06 |
| CCGCGGACTTGGGTTCTAACCTGTTGCTA (site CCGCGGACTTA) | 0.989 |
| CGCTGGTCTTGGGTTCTAACCTGTTGCCT (site CGCTCGTCTAG) | 0.145 |
| TGGACGTCTTGGGTTCTAACCTGTTGCCT (site TGGACGCCTAG) | 0.125 |
| CGTCACCCTTGGGTTCTAACCTGTTGCCT (site CGTCAACCTAG) | 0.0616 |
| GCGGGGTCTTGGGTTCTAACCTGTTGCTT (site GCTGGGTCTAA) | 0.783 |
| TTACGTGCTTGGGTTCTAACCTGTTGCGG (site TTACGCGCTCC) | 0.141 |
| GGGCCTACTTGGGTTCTAACCTGTTGCTC (site GGGCCTACTTA) | 0.171 |
| AGATCCGCTTGGGTTCTAACCTGTTGCCT (site AGATCCGCTAG) | 1.3 |
| GGGCCTACTTGGGTTCTAACCTGTTGCTT (site GGGCCTACTTA) | 0.063 |
| ATGCCCACTTGGGTTCTAACCTGTTGCCT (site ATGCCTACTAG) | 0.106 |
| AGATGGCCTTGGGTTCTAACCTGTTGCAT (site AGATGGACTCT) | 0.152 |
| CGATGTGCTTGGGTTCTAACCTGTTGCCT (site CGATGTGCTAG) | 0.535 |
| GGACCTCCTTGGGTTCTAACCTGTTGCCT (site GGACCTCCTAT) | 0.524 |

| Sequence | recombinant barcode read abundance (log10) |
| --- | --- |
| GTGGATGCTTGGGTTCTAACCTGTTGCCT (site GGGGATTCTAG) | 0.28 |
| AGTCTGGCTTGGGTTCTAACCTGTTGCCT (site AGTCTGGCTAG) | 0.146 |
| GAGACTGCTTGGGTTCTAACCTGTTGCCT (site GACACTGCTAG) | 0.068 |
| GTGGGCCCTTGGGTTCTAACCTGTTGCTG (site GTGGGCCCTCA) | 2.73 |
| CGTAGCTCTTGGGTTCTAACCTGTTGCCT (site CGAAGCTCTAG) | 0.133 |
| CCTGGCACTTGGGTTCTAACCTGTTGCGA (site CCTCGCACTTC) | 0.0518 |
| CTAAGGTCTTGGGTTCTAACCTGTTGCGT (site CTAAGGTCTAC) | 2.69 |
| GAGTGGCCTTGGGTTCTAACCTGTTGCCT (site GAGTGGCCTAC) | 0.121 |
| TTGAGTGCTTGGGTTCTAACCTGTTGCCT (site TTGAGTGCTAG) | 0.804 |
| AACTTCGCTTGGGTTCTAACCTGTTGCCT (site AACTTCTCTAG) | 0.269 |
| GTTAGGCCTTGGGTTCTAACCTGTTGCCT (site GTTAGGCCTAG) | 0.292 |
| CTAGGAGCTTGGGTTCTAACCTGTTGCTA (site CTAGGAGCTTA) | 1.23 |
| TAGTTAGCTTGGGTTCTAACCTGTTGCCT (site TAGTTAGCTCG) | 0.217 |
| CCTGGGGCTTGGGTTCTAACCTGTTGCCT (site CCTGGGGCTAG) | 0.233 |
| GTATGATCTTGGGTTCTAACCTGTTGCAT (site GTATGATCTAT) | 0.807 |
| GATGCCACTTGGGTTCTAACCTGTTGCCT (site GATCCCACTAG) | 0.182 |
| TATATAACTTGGGTTCTAACCTGTTGCCT (site TATAGAACTAG) | 0.119 |
| CTGGGTCCTTGGGTTCTAACCTGTTGCTT (site CTTGGTTCTAA) | 0.179 |
| CTCTAGACTTGGGTTCTAACCTGTTGCGT (site CTTTAGACTAT) | 0.211 |
| CTATCGCCTTGGGTTCTAACCTGTTGCCT (site CTGTCGCCTAG) | 0.0772 |
